According to US7402402B2, “P38 MAPK pathway predicts endocrine-resistant growth of human breast cancer and provides a novel diagnostic and treatment target” (Baylor College of Medicine, priority 2001, dated 2008):

How the values were obtained:
[1] = system: ER-positive MCF-7 human breast cancer cells; conditions: literature (Osborne et al., 1995), cited from earlier work
p38β = p38β (Homo sapiens, UniProt Q15759); assay: In vitro kinase assay of Example 3: p38β-induced phosphorylation of ER; type: biochemical; conditions: ERα and ERβ substrates
p38 MAPK [2] = assay: In vitro phosphorylation of Xenopus oocyte-expressed AIB1 by p38 MAPK; type: biochemical; conditions: Xenopus oocyte-expressed AIB1, FIG. 4 lane 4
p38 MAPK [3] = conditions: baculovirus-expressed ERα, FIG. 3A
[4] = system: ER-positive MCF-7 human breast cancer cells; assay: MCF-7 human breast cancer xenografts in athymic nude mice, tumor volume; type: in vivo; conditions: wild type MCF-7 xenografts, treatment from day 17, FIG. 2A; growth eventually resumes (Tam^R)
Excerpt: The present inventors have developed an in vivo experimental model of tamoxifen resistance and resistance to estrogen deprivation in which ER-positive MCF-7 human breast cancer cells are inoculated subcutaneously into athymic nude mice [Osborne et al., 1987, Eur J Cancer Clin Oncol. 23(8):1189-1196; Osborne et al., 1991, J Natl Cancer Inst. 83(20):1477-1482]. […] This sequence of events is similar to that which occurs in patients. […] Since certain metabolites of tamoxifen have estrogenic properties, pharmacologic explanations for this tamoxifen-stimulated growth were investigated first.
ER-positive MCF-7 human breast cancer cells were grown as xenografts in athymic nude mice as described previously [Osborne et al., 1987, Eur J Cancer Clin Oncol. 23(8):1189-1196; Osborne et al., 1991, J Natl Cancer Inst. 83(20):1477-1482; Osborne et al., 1995, J Natl Cancer Inst 87:746-750]. Day 0 was the day of transplantation conducted and the day estrogen treatment began. These mice were treated with estrogen withdrawal (−E2) or tamoxifen (Tam) beginning on day 17. Tumor volume was measure every four days.

Sequence of p38β (Q15759 whole entry): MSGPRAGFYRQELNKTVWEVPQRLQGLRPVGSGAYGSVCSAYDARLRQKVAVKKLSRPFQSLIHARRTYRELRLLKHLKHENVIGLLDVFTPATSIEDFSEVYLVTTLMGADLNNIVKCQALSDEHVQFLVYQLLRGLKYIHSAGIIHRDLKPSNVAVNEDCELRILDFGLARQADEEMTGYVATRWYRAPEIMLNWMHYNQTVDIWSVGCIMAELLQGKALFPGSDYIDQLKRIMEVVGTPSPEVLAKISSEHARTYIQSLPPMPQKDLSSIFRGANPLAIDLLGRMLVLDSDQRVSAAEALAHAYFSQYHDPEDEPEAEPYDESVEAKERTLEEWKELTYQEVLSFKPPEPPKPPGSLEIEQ

SMILES: C[C@]12CC[C@@H]3c4ccc(O)cc4C[C@@H](CCCCCCCCC[S+]([O-])CCCC(F)(F)C(F)(F)F)[C@H]3[C@@H]1CC[C@@H]2O (stereo partly drawn) [ICI 182,780]
- growth of −E2^R and Tam^R resistant tumors ([1]; resistant xenograft tumors): can still be inhibited

SMILES: C[S+]([O-])c1ccc(-c2nc(-c3ccncc3)c(-c3ccc(F)cc3)[nH]2)cc1 (stereo not drawn) [SB 203580]
- p38β-induced phosphorylation of ER (p38β): can be inhibited
- AIB1 phosphorylation by p38 MAPK (p38 MAPK [2]): inhibits AIBI phosphorylation
- phosphorylation of ERα by p38 MAP kinase in the presence of inhibitor (p38 MAPK [3]): inhibited

SMILES: CC/C(=C(\c1ccccc1)c1ccc(OCCN(C)C)cc1)c1ccccc1 [tamoxifen]
- xenografted tumor growth (tumor volume over time) [4]: suppresses tumor growth for several months
- tumor growth in MCF-7 xenograft model ([1]; tumor growth later resumes despite continued treatment): suppresses tumor growth for several months
